According to US20050148627A1, “Benzopyran compounds for use in the treatment and prevention of inflammation related conditions” (priority 2003, published 2005):
“And” between values parts separate entries of the source, which are not always exact repeats. Equal entries are not always repeated.

Molecular target: COX-1 (Homo sapiens, UniProt P23219)
Experiment: biochemical

COX-1, sequence (P23219 24-599): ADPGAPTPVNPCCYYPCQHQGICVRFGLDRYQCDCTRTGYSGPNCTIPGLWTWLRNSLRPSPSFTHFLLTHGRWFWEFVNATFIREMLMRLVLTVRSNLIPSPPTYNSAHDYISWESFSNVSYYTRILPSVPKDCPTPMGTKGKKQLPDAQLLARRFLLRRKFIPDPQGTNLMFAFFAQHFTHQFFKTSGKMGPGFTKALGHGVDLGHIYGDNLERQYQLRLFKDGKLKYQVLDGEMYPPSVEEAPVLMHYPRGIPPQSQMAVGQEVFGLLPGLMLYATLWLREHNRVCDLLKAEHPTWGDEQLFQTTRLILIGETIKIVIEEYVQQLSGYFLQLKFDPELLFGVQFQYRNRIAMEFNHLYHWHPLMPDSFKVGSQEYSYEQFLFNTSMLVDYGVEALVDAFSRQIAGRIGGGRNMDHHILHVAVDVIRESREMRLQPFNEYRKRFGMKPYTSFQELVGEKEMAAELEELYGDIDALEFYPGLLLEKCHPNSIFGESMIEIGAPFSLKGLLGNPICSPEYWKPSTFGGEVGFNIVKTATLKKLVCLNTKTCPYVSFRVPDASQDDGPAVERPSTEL

Row | IC50 | SMILES
1 | 11.4 µM and 14 µM | O=C(O)C1=Cc2cc(Cl)c(CCc3ccc(Cl)cc3)cc2OC1C(F)(F)F (stereo not drawn) [Example 9j, 6-chloro-7-[2-(4-chlorophenyl)ethyl]-2-(trifluoromethyl)-2H-chromene-3-carboxylic acid]
2 | 21 µM | O=C(O)C1=Cc2cc(Cl)c(OCc3ccccc3)c(Cl)c2OC1C(F)(F)F (stereo not drawn) [Example 1g, 7-(benzyloxy)-6,8-dichloro-2-(trifluoromethyl)-2H-chromene-3-carboxylic acid]
3 | > 100 µM | CC(C)(C#N)c1cc2c(cc1Cl)C=C(C(=O)O)C(C(F)(F)F)O2 (stereo not drawn) [Example 118, 6-chloro-7-(1-cyano-1-methylethyl)-2-(trifluoromethyl)-2H-chromene-3-carboxylic acid]
4 | 30.2 µM and 29.4 µM | Cc1cc2c(c(C)c1Cl)C=C(C(=O)O)C(C(F)(F)F)O2 (stereo not drawn) [Example 100, 6-chloro-5,7-dimethyl-2-(trifluoromethyl)-2H-chromene-3-carboxylic acid]
5 | < 0.137 µM | CC(C)CNc1c(Cl)cc2c(c1Cl)OC(C(F)(F)F)C(C(=O)O)=C2 (stereo not drawn) [Example 38c, 6,8-dichloro-7-(isobutylamino)-2-(trifluoromethyl)-2H-chromene-3-carboxylic acid]
6 | 0.413 µM and < 0.137 µM | CCCCC(C)(C)c1ccc2c(c1)OC(C(F)(F)F)C(C(=O)O)=C2 (stereo not drawn) [Example 109, 7-(1,1-dimethylpentyl)-2-(trifluoromethyl)-2H-chromene-3-carboxylic acid]
7 | > 100 µM | COc1c(Cl)cc2c(c1C)OC(C(F)(F)F)C(C(=O)O)=C2 (stereo not drawn) [Example 3a, 6-chloro-7-methoxy-8-methyl-2-(trifluoromethyl)-2H-chromene-3-carboxylic acid]
8 | > 1 µM and 25.6 µM and 12.4 µM | O=C(O)C1=Cc2cc(Cl)c(I)c(Cl)c2OC1C(F)(F)F (stereo not drawn) [Example 22, 6,8-dichloro-7-iodo-2-(trifluoromethyl)-2H-chromene-3-carboxylic acid]
9 | 5.5 µM | Cc1cc(C)c(Cc2cc3c(cc2Cl)C=C(C(=O)O)C(C(F)(F)F)O3)cc1Cl (stereo not drawn) [Example 9t, 6-chloro-7-(5-chloro-2,4-dimethylbenzyl)-2-(trifluoromethyl)-2H-chromene-3-carboxylic acid]
10 | > 100 µM and 188 µM and 194 µM | Cc1c(Cl)cc(C(C)C)c2c1C=C(C(=O)O)C(C(F)(F)F)O2 (stereo not drawn) [Example 6, 6-chloro-8-isopropyl-5-methyl-2-(trifluoromethyl)-2H-chromene-3-carboxylic acid]
11 | > 100 µM | CNc1c(Cl)cc2c(c1Cl)OC(C(F)(F)F)C(C(=O)O)=C2 (stereo not drawn) [Example 38b, 6,8-dichloro-7-(methylamino)-2-(trifluoromethyl)-2H-chromene-3-carboxylic acid]
12 | > 100 µM and 478 µM | COc1ccc2c(c1C)OC(C(F)(F)F)C(C(=O)O)=C2 (stereo not drawn) [Example 5c, 7-methoxy-8-methyl-2-(trifluoromethyl)-2H-chromene-3-carboxylic acid]
13 | < 0.137 µM and 0.0312 µM | C#Cc1cc(OC(F)(F)F)cc2c1OC(C(F)(F)F)C(C(=O)O)=C2 (stereo not drawn) [Example 21f, 8-ethynyl-6-(trifluoromethoxy)-2-(trifluoromethyl)-2H-chromene-3-carboxylic acid]
14 | > 100 µM and 93 µM | CCC(C)(C)c1ccc2c(c1)OC(C(F)(F)F)C(C(=O)O)=C2 (stereo not drawn) [Example 106, 7-tert-pentyl-2-(trifluoromethyl)-2H-chromene-3-carboxylic acid]
15 | 9.16 µM and 9.17 µM | CCCC(C)(C)c1cc2c(cc1Cl)C=C(C(=O)O)C(C(F)(F)F)O2 (stereo not drawn) [Example 111, 6-chloro-7-(1,1-dimethylbutyl)-2-(trifluoromethyl)-2H-chromene-3-carboxylic acid]
16 | > 100 µM and 217 µM | CC(C)Cc1cc(OC(F)(F)F)cc2c1OC(C(F)(F)F)C(C(=O)O)=C2 (stereo not drawn) [Example 21h, 8-isobutyl-6-(trifluoromethoxy)-2-(trifluoromethyl)-2H-chromene-3-carboxylic acid]
17 | 0.185 µM and 0.12 µM and < 0.137 µM | CSc1cc(Cl)cc2c1OC(C(F)(F)F)C(C(=O)O)=C2 (stereo not drawn) [Example 44, 6-chloro-8-(methylthio)-2-(trifluoromethyl)-2H-chromene-3-carboxylic acid]
18 | 63.9 µM | CC(C)(C=O)c1ccc2c(c1)OC(C(F)(F)F)C(C(=O)O)=C2 (stereo not drawn) [Example 114, 7-(1,1-dimethyl-2-oxoethyl)-2-(trifluoromethyl)-2H-chromene-3-carboxylic acid]
19 | 58.3 µM | CCCCc1cc2c(cc1Cc1ccccc1)OC(C(F)(F)F)C(C(=O)O)=C2 (stereo not drawn) [Example 42d, 7-benzyl-6-butyl-2-(trifluoromethyl)-2H-chromene-3-carboxylic acid]
20 | 78.5 µM and 52.3 µM | C=C(C)C#Cc1cc(Cl)cc2c1OC(C(F)(F)F)C(C(=O)O)=C2 (stereo not drawn) [Example 36, 6-chloro-8-(3-methylbut-3-en-1-ynyl)-2-(trifluoromethyl)-2H-chromene-3-carboxylic acid]
21 | 81.1 µM and 36.4 µM | COc1cc(Cl)c2c(c1)C=C(C(=O)O)[C@@H](C(F)(F)F)O2 (single isomer, unassigned) [Example 17i]

Row | IC50 | SMILES
22 | 0.425 µM | O=C(O)C1=Cc2cc(Cl)c(Cc3ccccc3Cl)cc2OC1C(F)(F)F (stereo not drawn) [Example 9n, 6-chloro-7-(2-chlorobenzyl)-2-(trifluoromethyl)-2H-chromene-3-carboxylic acid]
23 | 39.2 µM | N#Cc1cc(OC(F)(F)F)cc2c1OC(C(F)(F)F)C(C(=O)O)=C2 (stereo not drawn) [Example 21p, 8-cyano-6-(trifluoromethoxy)-2-(trifluoromethyl)-2H-chromene-3-carboxylic acid]
24 | 12.7 µM and 12.5 µM | O=C(O)C1=Cc2cc(Cl)c(CCC3CCCCC3)cc2OC1C(F)(F)F (stereo not drawn) [Example 9i, 6-chloro-7-(2-cyclohexylethyl)-2-(trifluoromethyl)-2H-chromene-3-carboxylic acid]
25 | > 100 µM | CCSc1cc2c(cc1Cl)C=C(C(=O)O)C(C(F)(F)F)O2 (stereo not drawn) [Example 7a, 6-chloro-7-(ethylthio)-2-(trifluoromethyl)-2H-chromene-3-carboxylic acid]
26 | > 100 µM and 198 µM | CCOc1c(Cl)c(Br)c(Cl)c2c1OC(C(F)(F)F)C(C(=O)O)=C2 (stereo not drawn) [Example 27, 6-bromo-5,7-dichloro-8-ethoxy-2-(trifluoromethyl)-2H-chromene-3-carboxylic acid]
27 | > 100 µM | O=C(O)C1=Cc2ccc(Cc3ccc(F)c(F)c3)cc2OC1C(F)(F)F (stereo not drawn) [Example 9aa, 7-(3,4-difluorobenzyl)-2-(trifluoromethyl)-2H-chromene-3-carboxylic acid]
28 | > 100 µM | CCCc1cc2c(cc1Cc1ccccc1)OC(C(F)(F)F)C(C(=O)O)=C2 (stereo not drawn) [Example 42c, 7-benzyl-6-propyl-2-(trifluoromethyl)-2H-chromene-3-carboxylic acid]
29 | > 100 µM and 115 µM and 49.6 µM | CCc1cc(OC(F)(F)F)cc2c1O[C@@H](C(F)(F)F)C(C(=O)O)=C2 (single isomer, unassigned) [Example 21l]
30 | 3.32 µM and 2 µM | Cc1cc(Cl)c(C)c2c1OC(C(F)(F)F)C(C(=O)O)=C2 (stereo not drawn) [Example 105, 6-chloro-5,8-dimethyl-2-(trifluoromethyl)-2H-chromene-3-carboxylic acid]
31 | > 97.6 µM | Cc1c(O)c(Cl)cc2c1OC(C(F)(F)F)C(C(=O)O)=C2 (stereo not drawn) [Example 3i, 6-chloro-7-hydroxy-8-methyl-2-(trifluoromethyl)-2H-chromene-3-carboxylic acid]
32 | > 100 µM and 119 µM | C=CCc1cc(OC(F)(F)F)cc2c1OC(C(F)(F)F)C(C(=O)O)=C2 (stereo not drawn) [Example 21s, 8-allyl-6-(trifluoromethoxy)-2-(trifluoromethyl)-2H-chromene-3-carboxylic acid]
33 | > 100 µM | CCCCN(CC)c1cc2c(cc1Cl)C=C(C(=O)O)C(C(F)(F)F)O2 (stereo not drawn) [Example 8h, 7-[butyl(ethyl)amino]-6-chloro-2-(trifluoromethyl)-2H-chromene-3-carboxylic acid]
34 | 3.05 µM and 2.38 µM | O=C(O)C1=Cc2cc(Cl)c(Cc3ccccc3)cc2O[C@H]1C(F)(F)F (single isomer, unassigned) [Example 9l]
35 | > 500 µM | CCOc1cc(C)cc2c1OC(C(F)(F)F)C(C(=O)O)=C2 (stereo not drawn) [Example 31, 8-ethoxy-6-methyl-2-(trifluoromethyl)-2H-chromene-3-carboxylic acid]
36 | < 0.137 µM | Cc1c(OCC2CC2)c(Cl)cc2c1OC(C(F)(F)F)C(C(=O)O)=C2 (stereo not drawn) [Example 3d, 6-chloro-7-(cyclopropylmethoxy)-8-methyl-2-(trifluoromethyl)-2H-chromene-3-carboxylic acid]
37 | 83.8 µM | CCCCc1cc(OC(F)(F)F)cc2c1OC(C(F)(F)F)C(C(=O)O)=C2 (stereo not drawn) [Example 21r, 8-butyl-6-(trifluoromethoxy)-2-(trifluoromethyl)-2H-chromene-3-carboxylic acid]
38 | < 0.137 µM | C=Cc1cc(OC(F)(F)F)cc2c1OC(C(F)(F)F)C(C(=O)O)=C2 (stereo not drawn) [Example 21n, 6-(trifluoromethoxy)-2-(trifluoromethyl)-8-vinyl-2H-chromene-3-carboxylic acid]
39 | > 100 µM | O=C(O)C1=Cc2ccc(OCc3ccco3)cc2OC1C(F)(F)F (stereo not drawn) [Example 5f, 7-(2-furylmethoxy)-2-(trifluoromethyl)-2H-chromene-3-carboxylic acid]
40 | 2.3 µM | CCCOc1c(Cl)cc2c(c1C)OC(C(F)(F)F)C(C(=O)O)=C2 (stereo not drawn) [Example 3c, 6-chloro-8-methyl-7-propoxy-2-(trifluoromethyl)-2H-chromene-3-carboxylic acid]
41 | > 100 µM | C=C(C)c1cc2c(cc1Cl)C=C(C(=O)O)C(C(F)(F)F)O2 (stereo not drawn) [Example 113, 6-chloro-7-isopropenyl-2-(trifluoromethyl)-2H-chromene-3-carboxylic acid]
42 | 6.52 µM and 3.06 µM | CCCC#Cc1cc(OC(F)(F)F)cc2c1OC(C(F)(F)F)C(C(=O)O)=C2 (stereo not drawn) [Example 21e, 8-pent-1-ynyl-6-(trifluoromethoxy)-2-(trifluoromethyl)-2H-chromene-3-carboxylic acid]

Row | SMILES | IC50
43 | CCC(CC)COc1ccc2c(c1C)OC(C(F)(F)F)C(C(=O)O)=C2 (stereo not drawn) [Example 5d, 7-(2-ethylbutoxy)-8-methyl-2-(trifluoromethyl)-2H-chromene-3-carboxylic acid] | 31.9 µM and 17.2 µM
44 | CC(C)(C)Oc1cc2c(cc1Cl)C=C(C(=O)O)C(C(F)(F)F)O2 (stereo not drawn) [Example 2g, 7-tert-butoxy-6-chloro-2-(trifluoromethyl)-2H-chromene-3-carboxylic acid] | > 500 µM
45 | CC(C)(C)Oc1ccc2c(c1)OC(C(F)(F)F)C(C(=O)O)=C2 (stereo not drawn) [Example 5b, 7-tert-butoxy-2-(trifluoromethyl)-2H-chromene-3-carboxylic acid] | > 500 µM
